Data on one compound can be found in US6998470B1, “Process for large-scale isolation and purification of hypothalamic inhibitory factor” (Bion, Inc., priority 1997, dated 2006).

As a reminder, the IC50 is the concentration that gives 50% inhibition.

For assay [1], the target named is T1, monoclonal antibody 26-10 (Mus musculus, UniProt P01631).
T1 construct: fused on or other part: Heavy chain of mAb 26-10 (A/J mouse), which forms most of the digoxin/ouabain pocket
Nature of the assay: 125I competition plate assay using goat-anti-mouse IgG Fab to bind the antibodies. On the set-up: species or system mice. The settings on record: read-out: relative affinity (IC50); binding to anti-digoxin mAb 26-10. The text has this: (§1) Several available anti-digoxin antibodies were studied to determine relative affinity for ouabain.
Monoclonal antidigoxin antibody 26-10 was obtained from A/J mice immunized with a digoxin-human serum albumin (Dig-HSA) conjugate and spleen cells were fused with the non-secreting murine myeloma Sp2/0 cell line (Mudgett-Hunter, M., et al. J. Immunol., 129:1165–1172 (1982)). Hybridoma cells identified by radioimmunoassay (RIA) as secreting anti-digoxin antibody were cloned and grown in tissue culture and amplified in the ascites form in mice. Digoxin specific hybridoma proteins were purified from ascites by a variety of chromatographic methods, including ion-exchange chromatography on DEAE cellulose and affinity chromatography on Digoxin-BSA-Sepharose or ouabain-amine Sepharose.

The test system of assay [2] is Na+-K+-ATPase pump activity in human erythrocytes. Kind of assay: standard human erythrocyte 86Rb+ uptake assay. Type of assay: cell-based. The settings on record: RBC 86Rb+ uptake assay.
Excerpt: As defined herein, purified HIF refers to HIF which is substantially free of or isolated from other tissue or fluid protein components and contaminants. In addition, the purified HIF of the present invention has at least 40% activity recovery. Preferably, the purified HIF has about 50–75% activity recovery, more preferably the purified HIF has about 75–90% activity recovery and most preferably, the purified HIF has about 90–95% activity recovery. As defined herein, “activity recovery” of HIF is the activity of HIF as measured indirectly by, for example a biological assay such as specific inhibition of Na^+-K^+-ATPase pump activity in human erythrocytes, or as measured directly, for example, by UV absorbance following HPLC chromatography.
as §1

The next assay deals with purified Na, K-ATPase. The settings on record: Haupert et al. 1984; read-out: affinity constant for binding to purified Na, K-ATPase; cited from earlier work.

T1 sequence (P01631 whole entry, the tested form may be a part): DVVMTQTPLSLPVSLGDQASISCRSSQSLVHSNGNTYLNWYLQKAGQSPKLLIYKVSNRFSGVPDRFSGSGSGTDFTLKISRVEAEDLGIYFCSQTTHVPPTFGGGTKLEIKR

As to `C[C@@H]1O[C@@H](O[C@H]2C[C@@H](O)[C@]3(CO)[C@H]4[C@H](O)C[C@]5(C)[C@@H](C6=CC(=O)OC6)CC[C@]5(O)[C@@H]4CC[C@]3(O)C2)[C@H](O)[C@H](O)[C@H]1O` [ouabain], the IC50 in assay [1] is 300 nM. For the same compound, in assay [2], the “amount equal to 1 U (1 U=50% inhibition under standard conditions)” value is “approximately 0.75 pmol”. Also, the Kd at purified Na, K-ATPase is about 1 nM.
